What all share (assay type): functional
Assay [1] is filed under the species Mus musculus. Description: Tested for its ability to eliminate the infective trypomastigote form of Trypanosoma cruzi, Y strain present in blood of infected mice at the dose of 0.20 mM.
For assay [2], the species on record is Mus musculus. Nature of the assay: Tested for its ability to eliminate the infective trypomastigote form of Trypanosoma cruzi, Y strain present in blood of infected mice at the dose of 0.18 mM.
The species named for assay [3] is Mus musculus. Description: Tested for its ability to eliminate the infective trypomastigote form of Trypanosoma cruzi, Y strain present in blood of infected mice at the dose of 0.12 mM.
Assay [4] is filed under the species Mus musculus. Description: Tested for its ability to eliminate the infective trypomastigote form of Trypanosoma cruzi, Y strain present in blood of infected mice at the dose of 0.22 mM.
For assay [5], the species on record is Mus musculus. Nature of the assay: Tested for its ability to eliminate the infective trypomastigote form of Trypanosoma cruzi, Y strain present in blood of infected mice at the dose of 0.29 mM.
For assay [6], the species on record is Mus musculus. Description: Tested for its ability to eliminate the infective trypomastigote form of Trypanosoma cruzi, Y strain present in blood of infected mice at the dose of 0.24 mM.
Assay [7] is filed under the species Mus musculus. Nature of the assay: Tested for its ability to eliminate the infective trypomastigote form of Trypanosoma cruzi, Y strain present in blood of infected mice at the dose of 0.25 mM.
The species named for assay [8] is Mus musculus. Description: Tested for its ability to eliminate the infective trypomastigote form of Trypanosoma cruzi, Y strain present in blood of infected mice at the dose of 0.21 mM.
The species entered for assay [9] is Mus musculus. Nature of the assay: Tested for its ability to eliminate the infective trypomastigote form of Trypanosoma cruzi, Y strain present in blood of infected mice at the dose of 0.50 mM.
The species named for assay [10] is Mus musculus. Nature of the assay: Tested for its ability to eliminate the infective trypomastigote form of Trypanosoma cruzi, Y strain present in blood of infected mice at the dose of 0.19 mM.
For assay [11], the species on record is Mus musculus. Nature of the assay: Tested for its ability to eliminate the infective trypomastigote form of Trypanosoma cruzi, Y strain present in blood of infected mice at the dose of 0.23 mM.

The compound `COc1cccc2c1C(=O)c1ccsc1C2=O` had a Lysis in the assay filed under Mus musculus [1] of 0%.
Consider `COc1ccc2c(c1OC)C(=O)c1sccc1C2=O`, for which, in the assay listed under Mus musculus [2], the Lysis was determined as 19%.
Turning to `CN(C)c1ccc(C(=C2C=CC(=[N+](C)C)C=C2)c2ccc(N(C)C)cc2)cc1.[Cl-]` [GENTIAN VIOLET], the Lysis in the assay listed under Mus musculus [3] is 100%.
For `COc1cccc2c1C(=O)c1ccoc1C2=O`, the Lysis in the assay listed under Mus musculus [4] is reported as 52%.
For `O=C1C=C(O)C(=O)c2ccccc21` [LAWSONE], the Lysis in the assay listed under Mus musculus [5] was found to be 76%.
Regarding `CCc1cc2c(o1)C(=O)c1ccccc1C2=O`, the Lysis in the assay listed under Mus musculus [4] was 24%.
The compound `COc1cc(OC)c2c(c1)C(=O)c1sccc1C2=O` gave a Lysis in the assay filed under Mus musculus [2] of 19%.
With `COc1cccc2c1C(=O)c1sccc1C2=O`, the Lysis in the assay listed under Mus musculus [1] was 26%.
`Cc1cc2c(o1)C(=O)c1ccccc1C2=O`: the Lysis in the assay filed under Mus musculus [6] is given as 18%.
Take `O=C1c2ccccc2C(=O)c2occc21`: the Lysis in the assay filed under Mus musculus [7] amounted to 33%.
With `CC(C)=CCC1=C(O)C(=O)c2ccccc2C1=O` [LAPACHOL], the Lysis in the assay filed under Mus musculus [8] is recorded as 65%.
In turn, `CC(C)/C=C/C1=C(O)C(=O)c2ccccc2C1=O` gave a Lysis in the assay listed under Mus musculus [8] of 81%.
As to `O=C1C(=O)c2ccoc2-c2ccccc21`, the Lysis in the assay listed under Mus musculus [9] is given as 100%.
`O=C1c2ccccc2C(=O)c2sc([N+](=O)[O-])cc21` displayed a Lysis in the assay filed under Mus musculus [10] of 54%.
Regarding `CC/C=C/C1=C(O)C(=O)c2ccccc2C1=O`, the Lysis in the assay listed under Mus musculus [4] turned out to be 68%.
In the case of `CC1(C)CCC2=C(O1)C(=O)c1ccccc1C2=O` [ALPHA-LAPACHONE], in the assay filed under Mus musculus [8], the Lysis was 48%.
On the same count and under the same terms, for `CC(C)c1cc2c(o1)C(=O)c1ccccc1C2=O` the value was 88%; for `CC(C)c1cc2c(o1)-c1ccccc1C(=O)C2=O`, 94%; for `CC1(C)CCC2=C(O1)c1ccccc1C(=O)C2=O` [LAPACHONE], 76%.
In the assay filed under Mus musculus [4], `CCc1cc2c(o1)-c1ccccc1C(=O)C2=O` came in with a Lysis of 94%.
For the compound `O=C1c2ccccc2C(=O)c2sccc21` [THIOPHENONAPHTHOQUINONE], in the assay filed under Mus musculus [11], the Lysis came out at 13%.
Regarding `COc1ccc2c(c1)C(=O)c1ccsc1C2=O`, the Lysis in the assay listed under Mus musculus [1] is on record as 9%.

The record behind these values is ChEMBL document CHEMBL1130355, “Trypanocidal activity and redox potential of heterocyclic- and 2-hydroxy-naphthoquinones” (1997).
